Results on four compounds are retold here after patent US20170251943A1, “Systems Level State Characteristics in Experimental Treatment of Disease” (priority 2014, published 2017).

Assay [1] deals with rats. Put plainly: CNS state characterization (LFP PSDs, diencephalic/telencephalic structures) in pharmacological psychosis-like states. It is filed as in vivo, rat. The conditions noted are these: Hippocampus, Nucleus Accumbens, Thalamus; pink noise normalized, FIG. 6.
Experimental: Power spectral densities (PSDs) are calculated with a multitaper method (Pesaran, 2008) (50%-overlapping 8-s windows, 7 tapers) implemented in Chronux 2.0 (Mitra and Bokil, 2007). To stabilize the variance and to emphasize narrowband oscillations over wideband signals, PSDs are normalized to the pink noise background according to Halje et al. (Halje et al., 2012), but with one important adaptation: Due to the complexity of the data it is not practical to manually pick frequency bands with pure pink noise in all structures and conditions to get unbiased estimates of the noise background. […] As a final step, an average spectrogram is calculated for each structure, based on the spectrograms for each individual local bipolar LFP time series. […]
For this purpose, a number of diencephalic and telencephalic structures were recorded in parallel including: hippocampus [corresponding to anterior hippocampus in humans], nucleus accumbens [core and shell], medial prefrontal cortex and anterior gyrus cinguli (adapted to rodent anatomy), the mediodorsal nucleus and the medial geniculate nucleus in thalamus.
The test system of assay [2] is medial forebrain bundle 6-OHDA hemilesioned rat. Kind of assay: Levodopa-induced dyskinesia, dyskinetic symptoms in 6-OHDA hemilesioned rat. Format: in vivo. An excerpt: To characterize the CNS effects of experimental treatment of symptoms in levodopa-induced dyskinesia, the most widely used model of this disease condition was employed—the medial forebrain bundle 6-OHDA hemilesioned rat. In this model, parkinsonism is induced by the injection of this neurotoxin resulting in extensive neurotoxic lesions of midbrain dopaminergic neurons projecting to the forebrain. By injecting the […] in only one of the hemispheres the other hemisphere can be used as an internal control in different recordings conditions/behavioral situations. Following a period of levodopa treatment, animals developed dyskinetic symptoms affecting the side of the body contralateral to the brain lesion (Halje et al., 2012). Thus, neuronal recordings obtained in the parkinsonian and dyskinetic condition can be compared to a healthy control condition. Rats were chronically implanted with 128 recording electrodes according to the methods described above and CNS activity patterns were recorded in a number of experiments performed in four adult female Sprague-Dawley rats.

The test system is the same in assay [3]. Kind of assay: CNS state characterization (LFP PSDs / spike trains, cortico-basal ganglia-thalamic loop) in dyskinetic 6-OHDA hemilesioned rat. Format: in vivo. As to the method:
Power spectral densities (PSDs) are calculated with a multitaper method (Pesaran, 2008) (50%-overlapping 8-s windows, 7 tapers) implemented in Chronux 2.0 (Mitra and Bokil, 2007). To stabilize the variance and to emphasize narrowband oscillations over wideband signals, PSDs are normalized to the pink noise background according to Halje et al. (Halje et al., 2012), but with one important adaptation: Due to the complexity of the data it is not practical to manually pick frequency bands with pure pink noise in all structures and conditions to get unbiased estimates of the noise background. Instead the whole frequency axis is divided into 20 logarithmically spaced bands (1-1.3, 1.3-1.7, . . . , 151.3-200 Hz) and the median power of each band is used for the fitting of the pink noise power curve S(f)=A/f^B. The pink noise normalization allows us to describe deviations from the pink noise floor in terms of the unit dBpink. As a final step, an average spectrogram is calculated for each structure, based on the spectrograms for each individual local bipolar LFP time series.
Offline spike sorting can be performed with commercially available software to obtain spike trains of individual neurons, for example Offline Sorter by Plexon Inc. Standard spike train statistics like average firing rate and coefficient of variation is then calculated and used as features in the state-space analysis.
elements, where each element is a measured variable. Typically, there are a couple of thousand variables in such a state description and it is necessary to reduce the dimensionality before it is practical to make further state characterizations. […]
To characterize the CNS effects of experimental treatment of symptoms in levodopa-induced dyskinesia, the most widely used model of this disease condition was employed—the medial forebrain bundle 6-OHDA hemilesioned rat. […] Rats were chronically implanted with 128 recording electrodes according to the methods described above and CNS activity patterns were recorded in a number of experiments performed in four adult female Sprague-Dawley rats. […]

For assay [4], the system named is rats. Put plainly: Behavioral changes in rats treated with psychosis-inducing drugs. Format: in vivo, rat. The note with it: 10-50 min after injection.

SMILES strings stand for the structures.

Regarding `CCN(CC)C(=O)[C@@H]1C=C2c3cccc4[nH]cc(c34)C[C@H]2N(C)C1` [LSD, lysergic acid diethylamide], in the assay on rats [1], the “LFP power spectra of the drug-induced psychosis-like state” value is listed as “high-frequency narrow band oscillation in n. Accumbens”.
`COc1ccccc1N1CCN(CCN(C(=O)C2CCCCC2)c2ccccn2)CC1` [WAY100635]: the “reversal of the anti-dyskinetic effect of the 5-HT1A agonist 8-OH-DPAT” value in assay [2] (given after 8-OH-DPAT in dyskinetic rat) was “fully reversed”. Besides, the “reversal of 8-OH-DPAT effect on CNS state (LFP power spectral densities)” value in assay [3] (dyskinetic+8-OH-DPAT rat, LFP PSDs in eight structures, FIG. 4) is listed as “reversed the effect of 8-OH-DPAT inducing a state that closely resembles the initial dyskinetic state”. In addition, the “reversal of 8-OH-DPAT effect on CNS state (relative firing rates of neurons)” value in assay [3] (dyskinetic+8-OH-DPAT rat, firing rates in eight structures of lesioned hemisphere, FIG. 5) is reported as “reversed the effect of 8-OH-DPAT to a state closely resembling the initial dyskinetic state”.
For the compound `CNC1(c2ccccc2Cl)CCCCC1=O` (stereo not shown) [Ketamine], in the assay on rats [4], the “behavioral change (locomotion)” value was “increased locomotion”.
Take `CCCN(CCC)C1CCc2cccc(O)c2C1` (stereo not shown) [8-OH-DPAT]: in assay [2] (1 mg/kg and 0.4 mg/kg i.p. at the time point of peak dyskinesia, two experiments), the “effect on dyskinetic symptoms” value is recorded as “effectively suppress dyskinetic symptoms”. Further, the “shift of CNS state in state space” value in assay [3] (dyskinetic rat, state spaces from spike trains and LFP PSDs, FIGS. 4 and 5) is given as “primarily shifted the dyskinetic state back towards the parkinsonian state”.
